How the values were obtained:
[1] = biological target: T1, 5-hydroxytryptamine receptor 1A (Homo sapiens) (UniProt P08908); assay: Intrinsic activity at 5HT1A receptor by GTPgammaS assay; type: functional
T1 sequence (whole entry): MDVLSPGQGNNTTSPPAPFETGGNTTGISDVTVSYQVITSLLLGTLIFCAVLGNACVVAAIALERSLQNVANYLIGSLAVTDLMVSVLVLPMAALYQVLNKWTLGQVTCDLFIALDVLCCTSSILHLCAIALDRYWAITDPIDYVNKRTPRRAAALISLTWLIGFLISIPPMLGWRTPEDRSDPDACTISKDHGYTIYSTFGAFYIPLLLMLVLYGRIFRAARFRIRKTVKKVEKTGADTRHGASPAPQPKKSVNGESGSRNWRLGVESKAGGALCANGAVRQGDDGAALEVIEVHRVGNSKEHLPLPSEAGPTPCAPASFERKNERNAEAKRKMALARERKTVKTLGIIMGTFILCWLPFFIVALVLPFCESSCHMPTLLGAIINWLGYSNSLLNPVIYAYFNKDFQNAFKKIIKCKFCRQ

[2] = biological target: T2, Sodium-dependent noradrenaline transporter (Homo sapiens, UniProt P23975); assay: Agonist activity at NET; type: functional
T2 sequence (P23975 whole entry): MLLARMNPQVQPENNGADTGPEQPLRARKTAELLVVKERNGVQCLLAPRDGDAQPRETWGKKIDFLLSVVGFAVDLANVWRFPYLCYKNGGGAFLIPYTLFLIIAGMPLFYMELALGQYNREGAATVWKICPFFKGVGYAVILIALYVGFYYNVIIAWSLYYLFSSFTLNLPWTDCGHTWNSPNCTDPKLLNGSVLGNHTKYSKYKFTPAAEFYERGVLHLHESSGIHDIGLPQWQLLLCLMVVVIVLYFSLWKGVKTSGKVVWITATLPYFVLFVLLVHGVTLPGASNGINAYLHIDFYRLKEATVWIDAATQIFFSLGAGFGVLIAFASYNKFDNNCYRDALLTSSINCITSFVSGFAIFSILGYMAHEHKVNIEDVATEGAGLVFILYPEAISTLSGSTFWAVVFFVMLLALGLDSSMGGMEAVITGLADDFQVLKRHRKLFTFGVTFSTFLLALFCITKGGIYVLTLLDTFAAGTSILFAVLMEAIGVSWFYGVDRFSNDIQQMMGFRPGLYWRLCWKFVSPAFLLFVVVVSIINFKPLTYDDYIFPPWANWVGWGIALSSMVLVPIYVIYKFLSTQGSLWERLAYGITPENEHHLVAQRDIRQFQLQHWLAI

[3] = biological target: T3, Sodium-dependent dopamine transporter (Homo sapiens, UniProt Q01959); assay: Agonist activity at DAT; type: functional
T3 sequence (Q01959 whole entry): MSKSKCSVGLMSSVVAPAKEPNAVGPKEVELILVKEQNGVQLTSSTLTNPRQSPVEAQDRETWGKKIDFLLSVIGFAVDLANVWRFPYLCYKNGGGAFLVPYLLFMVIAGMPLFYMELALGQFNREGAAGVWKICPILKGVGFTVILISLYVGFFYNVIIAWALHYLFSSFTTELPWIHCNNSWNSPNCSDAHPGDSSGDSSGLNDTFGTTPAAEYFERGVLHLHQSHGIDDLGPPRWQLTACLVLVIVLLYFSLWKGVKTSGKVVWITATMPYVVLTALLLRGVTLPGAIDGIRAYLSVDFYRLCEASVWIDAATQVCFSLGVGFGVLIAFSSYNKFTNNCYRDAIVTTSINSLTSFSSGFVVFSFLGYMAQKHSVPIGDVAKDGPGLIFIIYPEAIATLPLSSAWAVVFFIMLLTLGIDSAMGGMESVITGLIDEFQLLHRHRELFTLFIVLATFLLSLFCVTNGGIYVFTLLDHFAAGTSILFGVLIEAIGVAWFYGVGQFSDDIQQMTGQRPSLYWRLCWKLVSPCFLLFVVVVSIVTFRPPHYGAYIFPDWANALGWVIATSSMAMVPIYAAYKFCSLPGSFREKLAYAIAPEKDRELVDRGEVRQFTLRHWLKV

[4] = biological target: T4, Sodium-dependent serotonin transporter (Homo sapiens, UniProt P31645); assay: Agonist activity at SERT; type: functional
T4 sequence (P31645 whole entry): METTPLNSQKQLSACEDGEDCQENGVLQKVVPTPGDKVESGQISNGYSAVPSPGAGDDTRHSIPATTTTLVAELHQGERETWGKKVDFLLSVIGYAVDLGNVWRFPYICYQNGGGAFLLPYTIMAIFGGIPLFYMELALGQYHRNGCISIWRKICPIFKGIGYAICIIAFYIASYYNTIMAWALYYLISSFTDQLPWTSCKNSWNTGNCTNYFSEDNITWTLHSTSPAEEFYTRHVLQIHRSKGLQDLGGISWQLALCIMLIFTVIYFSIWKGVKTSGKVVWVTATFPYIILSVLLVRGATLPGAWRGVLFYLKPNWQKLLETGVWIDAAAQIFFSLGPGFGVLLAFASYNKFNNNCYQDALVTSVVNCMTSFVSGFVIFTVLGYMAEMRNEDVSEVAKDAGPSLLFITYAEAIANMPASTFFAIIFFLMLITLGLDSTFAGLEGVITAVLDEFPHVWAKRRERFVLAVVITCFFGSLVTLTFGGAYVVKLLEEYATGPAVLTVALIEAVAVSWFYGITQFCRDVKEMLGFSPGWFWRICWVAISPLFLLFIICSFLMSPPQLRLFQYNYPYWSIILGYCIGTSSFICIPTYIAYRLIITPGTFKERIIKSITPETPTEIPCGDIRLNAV

[5] = Ratio of EC50 for SERT to EC50 for NET
[6] = biological target: T5, 5-hydroxytryptamine receptor 1A (Homo sapiens, UniProt P08908); assay: Displacement of [3H]8-OH-DPAT from human cloned 5HT1A receptor by filtration techniques
T5 sequence (P08908 whole entry): T1 sequence (whole entry)

[7] = biological target: T2, Sodium-dependent noradrenaline transporter; assay: Displacement of [3H]nisoxetine from human NET expressed in HEK293 cells by scintillation proximity assay; type: cell-based
[8] = biological target: T3, Sodium-dependent dopamine transporter; assay: Displacement of [3H]WIN-35428 from human DAT expressed in HEK293 cells by scintillation proximity assay; type: cell-based
[9] = biological target: T4, Sodium-dependent serotonin transporter; assay: Displacement of [3H]citalopram from human SERT expressed in HEK293 cells by scintillation proximity assay; type: cell-based
[10] = biological target: T5, 5-hydroxytryptamine receptor 1A; assay: Agonist activity at 5HT1A receptor by GTPgammaS assay; type: functional
Rattus norvegicus [11] = assay: Ex vivo NET occupancy in rat brain at 10 mg/kg, sc after 1 hr; type: functional; conditions: route subcutaneous
Rattus norvegicus [12] = assay: Ex vivo 5HT1A receptor occupancy in rat brain at 10 mg/kg, sc after 1 hr; type: functional; conditions: route subcutaneous
[13] = Plasma concentration rat at 10 mg/kg, sc after 1 hr; type: ADME, organism-based; parameters: dose 10 mg/kg, route subcutaneous

Row | Compound | Intrinsic activity [1] [%] | EC50 [2] [nM] | EC50 [3] [nM] | EC50 [4] [nM] | Ratio EC50 [5] | Ki [6] [nM] | Ki [7] [nM] | Ki [8] [nM] | Ki [9] [nM] | EC50 [10] [nM] | concentration at 1 h [13] [ng/mL] | Activity (Rattus norvegicus [11]) [%] | Activity (Rattus norvegicus [12]) [%]
1 | Fc1ccccc1Oc1cccc(F)c1C1CCNCC1 | 84 | 28 | 498 | 915 | 33 | 4.6 | 32 | 278 | 1260 | 341 | – | – | –
2 | Fc1cccc(F)c1Oc1ncccc1C1CCNCC1 | – | – | – | – | – | 7.2 | – | > 6630 | 1850 | – | – | – | –
3 | FC(F)(F)c1ccccc1Oc1ncccc1C1CCNCC1 | – | – | – | – | – | 71 | 140 | > 6650 | 203 | – | – | – | –
4 | Fc1cccc(Cl)c1Oc1ncccc1C1CCNCC1 | 37 | 9 | 6880 | 409 | 45 | 11 | 33 | > 6180 | 194 | 89 | 777 | 75.3 | 37.4
5 | Cc1ccc(Oc2ncccc2C2CCNCC2)c(F)c1 | – | – | – | – | – | 5.5 | 921 | > 6140 | 36 | – | – | – | –
6 | Clc1ccccc1Oc1ncccc1N1CCNCC1 | – | – | – | – | – | 4.5 | 747 | > 6320 | > 4710 | – | – | – | –
7 | Fc1ccc(Oc2ncccc2C2CCNCC2)c(F)c1 | – | – | – | – | – | 29 | 143 | 2590 | 30 | – | – | – | –
8 | Fc1cccc(Cl)c1Oc1ncccc1N1CCNCC1 | – | – | – | – | – | 3.7 | 663 | > 6320 | > 4710 | – | – | – | –
9 | c1ccc(Oc2ncccc2C2CCNCC2)cc1 | – | – | – | – | – | 101 | 2440 | 4310 | – | – | – | – | –
10 | Fc1ccccc1Oc1ncccc1C1CCNCC1 | – | – | – | – | – | 13 | 536 | > 6180 | 728 | – | – | – | –
11 | Cc1ccccc1Oc1ncccc1C1CCNCC1 | – | – | – | – | – | 60 | 330 | > 6170 | 292 | – | – | – | –

More lines, in order of falling Ki [6], values ahead:

Row | Intrinsic activity [1] [%] | EC50 [2] [nM] | EC50 [3] [nM] | EC50 [4] [nM] | Ratio EC50 [5] | Ki [6] [nM] | Ki [7] [nM] | Ki [8] [nM] | Ki [9] [nM] | EC50 [10] [nM] | concentration at 1 h [13] [ng/mL] | Compound | Activity (Rattus norvegicus [11]) [%] | Activity (Rattus norvegicus [12]) [%]
12 | – | – | – | – | – | 173 | 1810 | > 6650 | 109 | – | – | Fc1cccc(Oc2ncccc2C2CCNCC2)c1F | – | –
13 | – | – | – | – | – | 92 | 292 | 6410 | 610 | – | – | COc1ccccc1Oc1ncccc1C1CCNCC1 | – | –
14 | – | – | – | – | – | 37 | 25 | 310 | 2 | – | – | Clc1cccc(Oc2ncccc2C2CCNCC2)c1Cl | – | –
15 | – | – | – | – | – | 37 | 413 | > 5500 | 2.7 | – | – | Clc1ccc(Oc2ncccc2C2CCNCC2)c(Cl)c1 | – | –
16 | – | – | – | – | – | 24 | 276 | 6410 | 887 | – | – | COc1cccc(F)c1Oc1ncccc1C1CCNCC1 | – | –
17 | – | – | – | – | – | 17 | 247 | > 6220 | 251 | – | – | Fc1ccc(Cl)c(Oc2ncccc2C2CCNCC2)c1 | – | –
18 | – | – | – | – | – | 16 | 74 | 5150 | 57 | – | – | Clc1ccccc1Oc1ncccc1C1CCNCC1 | – | –
19 | – | – | – | – | – | 10 | 27 | > 6370 | 102 | – | – | Cc1cccc(F)c1Oc1ncccc1C1CCNCC1 | – | –

Reference: ChEMBL document CHEMBL1158522, “Design, synthesis, and pharmacological evaluation of phenoxy pyridyl derivatives as dual norepinephrine reuptake inhibitors and 5-HT1A partial agonists” (Bioorg Med Chem Lett, 2010)
